Measurements published in ChEMBL document CHEMBL1121558, “Studies on several 7-substituted N,N-dimethyltryptamines” (J Med Chem, 1980).

Assays:
Rattus norvegicus = species: Rattus norvegicus; test: Effective dose was determined for the behavioral (interoceptive cues) activity of rats; assay type: functional
[1] = target: Serotonin (5-HT) receptor; test: Compound was evaluated for binding affinity towards 5-hydroxytryptamine receptor in isolated rat fundus preparation measured as pA2

Row | SMILES | ED50 (Rattus norvegicus) | pA2 [1]
1 | COc1ccc(OC)c(CC(C)N)c1 (stereo not given) | 0.59 mg/kg | 
2 | CN(C)CCc1c[nH]c2c(Br)cccc12 |  | 6.51
3 | COc1cc2c(CCN(C)C)c[nH]c2c(OC)c1OC |  | 5.98
4 | COc1cc(OC)c2[nH]cc(CCN(C)C)c2c1 | 3.38 mg/kg | 5.5
5 | COc1cc(C)c2[nH]cc(CCN(C)C)c2c1 | 1.54 mg/kg | 6.61
6 | Cc1cccc2c(CCN(C)C)c[nH]c12 |  | 6.29
7 | COc1ccc2c(CCN(C)C)c[nH]c2c1 | 0.4 mg/kg | 
8 | CCc1cccc2c(CCN(C)C)c[nH]c12 |  | 6.31
